Data published in patent US12595357B2, “Black knot melanin—a super-additive with UV absorbing and antioxidant properties” (The University of Akron, priority 2021, dated 2026).

Assay: DPPH assay for antioxidant activity (radical scavenging)
Type: biochemical
Details: 0.1 mM DPPH solution, absorbance at 517 nm; masses greater than or equal to 40 μg
Experimental: 2,2-diphenyl-1-(2,4,6-trinitrophenyl) hydrazyl (DPPH) radical scavenging activity of BKF melanin was measured according to the procedure described in the literature. […] Afterwards, the UV-vis absorbance spectra were collected to monitor the decrease in the absorbance at 517 nm due to quenching of DPPH radical by the BKF melanin. Similar volumes of BKF melanin solution were added to pure ethanol (instead of 0.1 mM DPPH solution) to measure the absorbance of BKF melanin itself. Afterwards, the scavenging activity (or antioxidant activity) [I] was calculated using Equation 1, where Ac is the absorbance of DPPH solution without any BKF melanin, Ai is the absorbance of DPPH solution mixed with varying amounts of BKF melanin, and Aj is the absorbance of BKF melanin itself without DPPH solution. […]
The antioxidant activity of BKF melanin was investigated using the DPPH assay described above. The scavenging activity was determined by monitoring the decrease in absorbance of DPPH at 517 nm, since the DPPH is reduced through an electron transfer from the antioxidant material. […] As the ascorbic acid concentration increases from 0 to 60 μg, the absorbance at 517 nm decreases along with visual change in color from purple to yellow. The antioxidant activity (%) calculated using Equation 1 is plotted as a function of ascorbic acid mass in FIG. 3B. […]

SMILES: O=C1O[C@H]([C@@H](O)CO)C(O)=C1O [ascorbic acid]
- antioxidant activity (%), saturated value: ~90%
